Calls of active or inactive are those of the source. No cut-off for these calls is given here.
Key:
[1] = system: NCI/ADR-RES; assay: Antiproliferative activity against human multidrug resistant NCI-ADR-RES cells overexpressing P-gp assessed as reduction in cell viability incubated for 48 hrs by MTT assay; type: functional, cell-based
[2] = system: NCI/ADR-RES; assay: Induction of apoptosis in human NCI-ADR-RES cells assessed as late apoptotic cells at 8 uM incubated for 48 hrs by Annexin V-FITC and DAPI staining based flow cytometry (Rvb= 0.66 %); type: functional
[3] = system: NCI/ADR-RES; assay: Induction of apoptosis in human NCI-ADR-RES cells assessed as early apoptotic cells at 8 uM incubated for 24 hrs by Annexin V-FITC and DAPI staining based flow cytometry (Rvb= 0.89 %); type: functional
[4] = system: NCI/ADR-RES; assay: Induction of apoptosis in human NCI-ADR-RES cells assessed as late apoptotic cells at 8 uM incubated for 24 hrs by Annexin V-FITC and DAPI staining based flow cytometry (Rvb= 0.66 %); type: functional
[5] = system: NCI/ADR-RES; assay: Induction of apoptosis in human NCI-ADR-RES cells assessed as viable cells at 8 uM incubated for 48 hrs by Annexin V-FITC and DAPI staining based flow cytometry (Rvb= 97.9 %); type: functional; settings: read-out: Activity
[6] = system: NCI-ADR-RES; assay: Activation of PI3K/AKT signaling pathway in human NCI-ADR-RES cells assessed as increase in AKT phosphorylation at 3 uM incubated for 24 to 48 hrs by Western blot analysis; type: cell-based; settings: filed as activator, time 24-48 hrs
[7] = system: NCI/ADR-RES; assay: Induction of apoptosis in human NCI-ADR-RES cells assessed as early apoptotic cells at 8 uM incubated for 48 hrs by Annexin V-FITC and DAPI staining based flow cytometry (Rvb= 0.89 %); type: functional
[8] = system: NCI/ADR-RES; assay: Induction of apoptosis in human NCI-ADR-RES cells assessed as viable cells at 8 uM incubated for 24 hrs by Annexin V-FITC and DAPI staining based flow cytometry (Rvb= 97.9 %); type: functional; settings: read-out: Activity
[9] = system: NCI/ADR-RES; assay: Induction of apoptosis in human NCI-ADR-RES cells assessed as necrotic cells at 8 uM incubated for 24 hrs by Annexin V-FITC and DAPI staining based flow cytometry (Rvb= 0.55 %); type: functional
[10] = system: NCI-ADR-RES; assay: Activation of PI3K/AKT signaling pathway in human NCI-ADR-RES cells assessed as increase in PI3K phosphorylation at 3 uM incubated for 24 to 48 hrs by Western blot analysis; type: cell-based; settings: filed as activator, time 24-48 hrs
[11] = system: NCI/ADR-RES; assay: Induction of apoptosis in human NCI-ADR-RES cells assessed as necrotic cells at 8 uM incubated for 48 hrs by Annexin V-FITC and DAPI staining based flow cytometry (Rvb= 0.55 %); type: functional

COc1cccc2c1C(=O)c1c(O)c3c(c(O)c1C2=O)C[C@@](O)(C(=O)CO)C[C@@H]3O[C@H]1C[C@H](N)[C@H](O)[C@H](C)O1 [DOXORUBICIN]
IC50 [1]: 58.5 µM
Activity [2]: 4.03%
Activity [3]: 0.64%
Activity [4]: 0.74%
viability at 8 µM [5]: 92.8%
Activity [6]: Active
Activity [7]: 1.78%
viability at 8 µM [8]: 98.3%
Activity [9]: 0.39%
Activity [10]: Active
Activity [11]: 1.47%

From ChEMBL document CHEMBL5247598 (Eur J Med Chem, 2022)
